Active and inactive are the calls of the source. The calls are words filed in the database; no cut-off is given here.
Key:
[1] = target: T1, 5-hydroxytryptamine receptor 2C (Homo sapiens, UniProt P28335); test: Displacement of [3H]mesulergine from 5HT2C receptor expressed in HEK293 cells; assay type: cell-based
T1 sequence (P28335 whole entry): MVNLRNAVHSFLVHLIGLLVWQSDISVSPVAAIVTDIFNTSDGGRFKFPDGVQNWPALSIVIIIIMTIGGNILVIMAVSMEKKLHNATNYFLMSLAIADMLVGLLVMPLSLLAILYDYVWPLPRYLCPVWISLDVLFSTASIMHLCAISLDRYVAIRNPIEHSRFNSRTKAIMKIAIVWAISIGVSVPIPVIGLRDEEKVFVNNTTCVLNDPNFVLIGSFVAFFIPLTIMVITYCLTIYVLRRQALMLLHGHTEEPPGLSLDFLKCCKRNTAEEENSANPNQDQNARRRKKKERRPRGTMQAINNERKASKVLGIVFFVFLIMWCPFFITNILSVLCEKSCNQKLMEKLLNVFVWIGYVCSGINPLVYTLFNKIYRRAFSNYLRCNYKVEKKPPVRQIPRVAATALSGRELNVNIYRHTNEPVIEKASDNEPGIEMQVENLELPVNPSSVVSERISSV

[2] = target: T2, 5-hydroxytryptamine receptor 2A (Homo sapiens, UniProt P28223); test: Displacement of [3H]ketanserin from 5HT2A receptor expressed in HEK293 cells; assay type: cell-based
[3] = target: T3, 5-hydroxytryptamine receptor 2B (Homo sapiens, UniProt P41595); test: Displacement of [3H]5-HT from 5HT2B receptor expressed in HEK293 cells; assay type: cell-based
[4] = target: T4, 5-hydroxytryptamine receptor 2C (Homo sapiens) (UniProt P28335); test: Agonist activity at 5HT2C receptor expressed in HEK293 cells assessed as intracellular calcium mobilisation up to 10 uM; assay type: functional, cell-based
T4 sequence (whole entry): T1 sequence (P28335 whole entry)

[5] = target: T2, 5-hydroxytryptamine receptor 2A; test: Agonist activity at 5HT2A receptor expressed in HEK293 cells assessed as intracellular calcium mobilisation up to 10 uM; assay type: functional, cell-based
[6] = target: T3, 5-hydroxytryptamine receptor 2B; test: Agonist activity at 5HT2B receptor expressed in HEK293 cells assessed as intracellular calcium mobilisation up to 10 uM; assay type: functional, cell-based
[7] = Blood clearance in iv dosed rat; assay type: ADME, organism-based; details: whole blood
[8] = Volume of distribution in iv dosed rat; assay type: ADME, organism-based; details: in vivo, read-out: Vdss
[9] = Oral bioavailability in po dosed rat; assay type: ADME, organism-based; details: in vivo
[10] = target: T4, 5-hydroxytryptamine receptor 2C (Homo sapiens); test: Antagonist activity at 5HT2C receptor expressed in HEK293 cells assessed as blockade of 5-hydroxytryptamine-induced intracellular calcium mobilisation; assay type: functional, cell-based

T3 sequence (P41595 whole entry): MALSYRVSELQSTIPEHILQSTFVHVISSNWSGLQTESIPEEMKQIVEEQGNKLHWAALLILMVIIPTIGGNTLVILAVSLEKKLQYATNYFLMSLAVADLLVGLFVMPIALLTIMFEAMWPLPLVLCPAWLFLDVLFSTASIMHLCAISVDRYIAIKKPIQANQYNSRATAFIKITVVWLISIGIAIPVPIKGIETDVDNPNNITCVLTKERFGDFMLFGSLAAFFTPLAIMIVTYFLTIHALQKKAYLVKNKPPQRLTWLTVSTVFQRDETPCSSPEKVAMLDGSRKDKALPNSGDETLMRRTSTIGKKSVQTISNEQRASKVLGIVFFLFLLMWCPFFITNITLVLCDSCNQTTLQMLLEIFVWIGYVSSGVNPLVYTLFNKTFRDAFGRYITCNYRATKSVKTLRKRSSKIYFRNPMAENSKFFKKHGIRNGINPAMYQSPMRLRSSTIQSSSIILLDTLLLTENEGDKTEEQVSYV
T2 sequence (P28223 whole entry): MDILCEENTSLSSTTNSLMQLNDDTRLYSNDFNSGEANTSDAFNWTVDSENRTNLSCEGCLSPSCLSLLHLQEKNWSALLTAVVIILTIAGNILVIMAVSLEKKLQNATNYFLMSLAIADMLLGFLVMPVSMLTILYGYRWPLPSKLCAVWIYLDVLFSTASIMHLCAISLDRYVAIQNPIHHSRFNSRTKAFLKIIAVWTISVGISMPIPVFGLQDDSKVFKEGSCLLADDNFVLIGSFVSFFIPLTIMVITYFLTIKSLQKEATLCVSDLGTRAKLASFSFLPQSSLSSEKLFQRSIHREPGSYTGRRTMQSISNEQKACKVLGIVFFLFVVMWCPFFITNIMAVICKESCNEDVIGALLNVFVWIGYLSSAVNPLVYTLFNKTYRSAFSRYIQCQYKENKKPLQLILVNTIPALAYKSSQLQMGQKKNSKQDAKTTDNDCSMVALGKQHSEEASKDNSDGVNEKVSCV

Row | Compound | Ki [1] | Ki [2] | Ki [3] | Activity [4] | Activity [5] | Activity [6] | clearance [7] | Vd [8] | bioavailability [9] | pKb [10] | Log Ki ([3]; hek293)
1 | COc1ccc(N2Cc3cccc(F)c3C2=O)cc1OCCN1CCCCC1 | 79.4 nM | > 10000 nM | > 3160 nM | inactive | inactive | inactive |  |  |  |  | 
2 | COc1ccc(N2Cc3cccc(C(F)(F)F)c3C2=O)cc1OCCN1CCC(C)CC1 | 1.58 nM | 631 nM | 501 nM | inactive | inactive | inactive |  |  |  |  | 
3 | COc1ccc(N2Cc3cc(Cl)c(Cl)cc3C2=O)cc1OCCN1CCC(C)CC1 | 5.01 nM | 501 nM | 200 nM | inactive | inactive | inactive | 16 mL/min/kg | 8.5 L/kg | 22% |  | 
4 | COc1ccc(N2Cc3cccc(Br)c3C2=O)cc1OCCN1CCC(C)CC1 | 0.794 nM | 631 nM | 158 nM | inactive | inactive | inactive |  |  |  | 9.3 | 
5 | COc1ccc(N2Cc3cc(Cl)c(C)c(Cl)c3C2=O)cc1OCCN1CCC(C)CC1 | 1.26 nM | 631 nM | 63.1 nM | inactive | inactive | inactive | 43 mL/min/kg | 9.1 L/kg | 24% |  | 
6 | COc1ccc(N2Cc3ccc(Cl)cc3C2=O)cc1OCCN1CCCCC1 | 15.8 nM | > 2510 nM | > 1580 nM | inactive | inactive | inactive |  |  |  | 7.2 | 
7 | COc1ccc(N2Cc3cc(C)cc(C)c3C2=N)cc1OCCN1CCC(C)CC1 | 126 nM | > 3980 nM | > 3160 nM | inactive | inactive | inactive |  |  |  |  | 
8 | COc1ccc(N2Cc3cc(Cl)cc(Cl)c3C2=O)cc1OCCN1CCCC(C)C1 (stereo unspecified) | 2.51 nM | > 1260 nM | 126 nM | inactive | inactive | inactive |  |  |  |  | 
9 | COc1ccc(N2Cc3cc(Cl)cc(Cl)c3C2=O)cc1OCCN1[C@H](C)CCC[C@@H]1C | 6.31 nM | 316 nM | 126 nM | inactive | inactive | inactive |  |  |  |  | 
10 | COc1ccc(N2Cc3cc(Cl)cc(Cl)c3C2=O)cc1OCCN1CCOCC1 | 12.6 nM | > 7940 nM | > 1000 nM | inactive | inactive | inactive |  |  |  |  | 
11 | COc1ccc(N2Cc3ccc(Cl)cc3C2=O)cc1OCCN1CCC(C)CC1 | 20 nM | 794 nM | > 1000 nM | inactive | inactive | inactive |  |  |  |  | 
12 | COc1ccc(N2Cc3cccc(Cl)c3C2=O)cc1OCCN1CCC(C)CC1 | 1.58 nM | 794 nM | 126 nM | inactive | inactive | inactive |  |  |  | 8.7 | 
13 | COc1ccc(N2Cc3cc(F)cc(C(F)(F)F)c3C2=O)cc1OCCN1CCC(C)CC1 | 0.398 nM | 251 nM | 251 nM | inactive | inactive | inactive |  |  |  |  | 
14 | COc1ccc(N2Cc3cc(Cl)cc(Cl)c3C2=O)cc1OCCN1CCC(C)(C)CC1 | 2 nM | 398 nM | 251 nM | inactive | inactive | inactive |  |  |  |  | 
15 | COc1ccc(N2Cc3cc(Cl)cc(Cl)c3C2=O)cc1OCCN1CCCCC1C (stereo unspecified) | 10 nM | > 3980 nM | > 2510 nM | inactive | inactive | inactive |  |  |  |  | 
16 | COc1ccc(N2Cc3cc(Cl)cc(Cl)c3C2=O)cc1OCCN1CCCCCC1 | 2.51 nM | 631 nM | 200 nM | inactive | inactive | inactive |  |  |  |  | 
17 | COc1ccc(N2Cc3c(Cl)cccc3C2=O)cc1OCCN1CCCCC1 | 251 nM | > 7940 nM | > 794 nM | inactive | inactive | inactive |  |  |  | 6 | 
18 | COc1ccc(N2Cc3cccc(Cl)c3C2=O)cc1OCCN1CCCCC1 | 3.98 nM | 1000 nM | 316 nM | inactive | inactive | inactive |  |  |  |  | 
19 | COc1ccc(N2Cc3cc(C)cc(C)c3C2=O)cc1OCCN1CCC(C)CC1 | 3.16 nM | 1260 nM | 316 nM | inactive | inactive | inactive | 59 mL/min/kg | 7.8 L/kg | 10% |  | 
20 | COc1ccc(N2Cc3cc(Cl)c(Cl)c(C)c3C2=O)cc1OCCN1CCC(C)CC1 | 2.51 nM | 398 nM | 100 nM | inactive | inactive | inactive | 16 mL/min/kg | 6.8 L/kg | 43% |  | 
21 | COc1ccc(N2Cc3cccc(C)c3C2=O)cc1OCCN1CCC(C)CC1 | 2.51 nM | > 6310 nM | 200 nM | inactive | inactive | inactive |  |  |  |  | 
22 | COc1ccc(N2CC=C(c3ccc(Cl)c(Cl)c3)C2=O)cc1OCCN1CCC(C)CC1 |  |  |  | inactive | inactive | inactive |  |  |  |  | 
23 | COc1ccc(N2Cc3c(F)c(F)cc(Cl)c3C2=O)cc1OCCN1CCC(C)CC1 | 2 nM | 501 nM | 126 nM | inactive | inactive | inactive |  |  |  |  | 

Second part, the compound after the results:

Row | Ki [1] | Ki [2] | Ki [3] | Activity [4] | Activity [5] | Activity [6] | clearance [7] | Vd [8] | bioavailability [9] | pKb [10] | Log Ki ([3]; hek293) | Compound
24 |  |  |  | inactive | inactive | inactive |  |  |  |  |  | CCOC(=O)c1ccc(N2Cc3ccccc3C2=O)cc1OCCN(CC)CC
25 | 25.1 nM | > 1000 nM | > 1000 nM | inactive | inactive | inactive |  |  |  |  |  | COc1ccc(N2Cc3cc(Cl)ccc3C2=O)cc1OCCN1CCC(C)CC1
26 | 1 nM | 501 nM | 100 nM | inactive | inactive | inactive |  |  |  |  |  | COc1ccc(N2Cc3ccc(Cl)c(Cl)c3C2=O)cc1OCCN1CCC(C)CC1
27 | 50.1 nM | > 10000 nM | > 1580 nM | inactive | inactive | inactive |  |  |  |  |  | COc1ccc(N2Cc3ccccc3C2=O)cc1OCCN1CCCCC1
28 | 200 nM | > 6310 nM | > 7940 nM | inactive | inactive | inactive |  |  |  |  |  | COc1ccc(N2Cc3cccc(OC)c3C2=O)cc1OCCN1CCCCC1
29 | 10 nM | > 3160 nM | > 794 nM | inactive | inactive | inactive |  |  |  |  |  | COc1ccc(N2Cc3cccc(C#N)c3C2=O)cc1OCCN1CCC(C)CC1
30 |  |  |  | inactive | inactive | inactive |  |  |  |  |  | COc1ccc(N2Cc3c(c4cc(Cl)ccc4n3C)C2=O)cc1OCCN1CCC(C)CC1
31 | 126 nM | > 1580 nM |  | inactive | inactive | inactive |  |  |  |  | > -6.7 | COc1ccc(N2Cc3c(Cl)cccc3C2=O)cc1OCCN1CCC(C)CC1
32 | 50.1 nM | > 6310 nM | > 10000 nM | inactive | inactive | inactive |  |  |  | 6.9 |  | COc1ccc(N2Cc3cc(Cl)ccc3C2=O)cc1OCCN1CCCCC1
33 | 1.58 nM | 398 nM | 200 nM | inactive | inactive | inactive | 50 mL/min/kg | 5.8 L/kg |  | 8.8 |  | COc1ccc(N2Cc3cc(Cl)cc(Cl)c3C2=O)cc1OCCN1CCC(C)CC1
34 | 6.31 nM | > 1000 nM | > 1000 nM | inactive | inactive | inactive | 48 mL/min/kg | 1.9 L/kg | 4% |  |  | COc1ccc(N2Cc3c(F)ccc(C(F)(F)F)c3C2=O)cc1OCCN1CCC(C)CC1
35 | 1.26 nM | > 1260 nM | 200 nM | inactive | inactive | inactive | 53 mL/min/kg | 8.2 L/kg |  |  |  | COc1ccc(N2C(=O)c3c(Cl)cccc3C2C)cc1OCCN1CCC(C)CC1 (stereo unspecified)
